Test system: lithium-pilocarpine model of mTLE
Test: Lithium-pilocarpine mouse model of mTLE, telemetric ECoG seizure detection
Type: in vivo, C57Bl6/J mice
Details: PCPZ 2 mg/kg i.p. twice daily
Protocol: Our procedures were all approved by local ethics committee (Charles Darwin, Apafis 202008050923999 v4). 8 weeks-old male C57B16/J mice were used in a pilocarpine-based model of temporal lobe epilepsy as described. In brief, animals received an intraperitoneal (ip) injection of LiCl (423 mg/kg) and scopolamine (1 mg/kg), respectively 18-24 hours and 1 hour prior to pilocarpine. Pilocarpine (75 mg/kg) was then injected ip and mice were continuously monitored for the onset of status epilepticus (SE). In mice in which the first pilocarpine injection had not triggered SE after one hour, a second injection at 20 mg/kg was performed. SE was interrupted one hour after onset by ip injection of diazepam and ketamine (both at 10 mg/kg). […] They were monitored daily for weight, behavior and were provided with enriched liquid food (Fortimel Energy®) for the first 5-7 days post SE. […]
ECoG probe implantation was performed 28 days post SE in all mice except for 1 mouse that was implanted prior to SE induction in order to monitor chronic seizure onset (FIG. 6D). […] One week after implantation, ECoG signal (0.3-160 Hz) were recorded continuously using a telemetric Octal Data Receiver (OpenSourceInstruments), amplified 100× and acquired at 512 Hz. Recordings were analyzed offline using Event Classification Processor ECP20 under NeuroArchiver 132. […]

`CN1CCN(CCCN2c3ccccc3Sc3ccc(Cl)cc32)CC1` [PCPZ, prochlorperazine] was tested. Which seizure frequency (chronic phase days 40-45 post-SE, saline group 2.86±0.83) did it give?
Its seizure frequency is 0.95±0.42 per day.

What about the “reduction in seizure frequency compared to saline control group” value (days 40-45 post-SE) of the same compound?
The value was 3 fold.
